The record followed here is article PMC6268968 (Molecules, 2012).

SMILES strings stand for the structures. pIC50: −log10 of the molar value.

In general, pIC50 refers to −log10 of the IC50, conventionally taken in molar units.

For the test, the target named is T1, Acetylcholinesterase (Electrophorus electricus, UniProt O42275).
T1 construct: gene ache
T1 sequence (O42275 24-633): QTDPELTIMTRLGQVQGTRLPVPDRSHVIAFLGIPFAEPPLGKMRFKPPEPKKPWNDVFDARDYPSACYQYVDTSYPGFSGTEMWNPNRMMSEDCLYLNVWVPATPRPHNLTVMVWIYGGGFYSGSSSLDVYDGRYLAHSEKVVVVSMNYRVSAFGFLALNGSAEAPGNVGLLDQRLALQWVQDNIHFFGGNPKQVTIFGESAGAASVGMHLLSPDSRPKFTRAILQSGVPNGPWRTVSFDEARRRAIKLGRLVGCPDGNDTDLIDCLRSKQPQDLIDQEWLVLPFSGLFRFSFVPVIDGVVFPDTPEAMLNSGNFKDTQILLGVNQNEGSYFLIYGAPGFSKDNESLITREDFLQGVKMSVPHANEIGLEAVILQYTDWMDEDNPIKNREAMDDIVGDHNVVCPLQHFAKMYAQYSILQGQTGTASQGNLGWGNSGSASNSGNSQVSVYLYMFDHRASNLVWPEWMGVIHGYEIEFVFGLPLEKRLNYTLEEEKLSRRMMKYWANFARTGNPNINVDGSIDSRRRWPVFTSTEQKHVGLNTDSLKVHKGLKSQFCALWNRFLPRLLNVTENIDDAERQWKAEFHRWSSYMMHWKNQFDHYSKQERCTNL
Kind of test: Ellman spectrophotometric assay (acetylthiocholine/DTNB, […] nm). Format: biochemical.
`O=C(/C=C/c1ccc(O)cc1)NCCc1ccc(O)cc1` [compound 1, trans-N-coumaroyltyramine] gave a pIC50 of 4.01.
Compound `COc1cc(/C=C/C(=O)NCCc2ccc(O)cc2)ccc1O` [compound 2, trans-N-feruloyltyramine] showed a pIC50 of 4.07.
The result for `O=C(/C=C/c1ccc(O)c(O)c1)NCCc1ccc(O)cc1` [compound 3, trans-N-caffeoyltyramine] reads 4.07.
